Target: T1, CB1 receptor (Homo sapiens, UniProt P21554)
T1 construct: expressed in transfected cells
Assay: cell-based
Format: cell-based

[1] = CBD 1 μM without AKBA, CP55940-induced activity = 100%
[2] = CBD 1 μM without AKBA, Table 3 data re-expressed as fold change

T1 sequence (P21554 whole entry): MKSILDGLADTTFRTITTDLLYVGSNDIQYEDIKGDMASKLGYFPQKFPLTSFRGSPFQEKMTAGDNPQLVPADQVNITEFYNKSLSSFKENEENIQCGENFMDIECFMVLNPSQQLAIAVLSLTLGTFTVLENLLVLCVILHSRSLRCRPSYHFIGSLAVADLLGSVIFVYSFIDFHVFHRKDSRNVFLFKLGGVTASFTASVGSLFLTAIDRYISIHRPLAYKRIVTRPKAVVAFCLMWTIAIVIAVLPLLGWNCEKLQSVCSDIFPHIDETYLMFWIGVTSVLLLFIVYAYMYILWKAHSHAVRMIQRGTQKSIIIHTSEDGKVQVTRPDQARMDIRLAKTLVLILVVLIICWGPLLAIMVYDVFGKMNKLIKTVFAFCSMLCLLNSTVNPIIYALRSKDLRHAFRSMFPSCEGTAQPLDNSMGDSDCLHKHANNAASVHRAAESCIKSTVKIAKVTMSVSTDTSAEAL

## C=C(C)[C@@H]1CCC(C)=C[C@H]1c1c(O)cc(CCCCC)cc1O [CBD, cannabidiol, reference compound]
AKBA 50 and 100 μM, THCA 10 μM or CBD 1 μM
  Effect of cannabinoid on AKBA CB1R positive allosteric activity: almost abolished
CBD 1 μM without AKBA, % of activity data
  Conclusions: Is CB1R antagonist effect observed?: + (A reduction of the percentage below 50% indicates CB1R antagonistic activity)
[1]
  Experiment 1 % of activity: 66.2%
  Experiment 2 % of activity: 70.7%
  Experiment 3 % of activity: 69.5%
[2]
  Experiment 1 Fold change: 1.7 Fold change
  Experiment 2 Fold change: 1.8 Fold change
  Experiment 3 Fold change: 1.7 Fold change
CBD 1 μM without AKBA, positive allosteric activity, fold change data
  Conclusions: Is CB1R antagonist effect observed?: Negative (Only treatments that the mean of three consecutive independent experiments show a positive result (CB1R activity ≥ 4-fold change) are considered positive CB1R allosteric agonists)

— US20210205236A1, “THERAPEUTIC COMBINATIONS OF BOSWELLIA EXTRACT AND CANNABINOIDS” (priority 2018, published 2021)
